From patent US9120761B2, “Selective FAK inhibitors” (priority 2011, dated 2015)
Read-outs that look alike come from different tables or passages of the source.

What was measured:
[1] = tested on: MDA-231-LNA cells; test: 2D cellular proliferation assay; type: cell-based; details: 72 h, 3 days incubation, resazurin
[2] = target: VEGFR3 cytoplasmic domain (Homo sapiens, UniProt P35916, DEL949-1002); test: VEGFR3 biochemical assay (Alpha Screen); details: modified form (*): N-terminal Hexa-His-fusion protein, amino acids 818-1177 lacking 949-1002
[3] = target: FAK enzyme (catalytic domain, amino acids 411-686) (Homo sapiens (Human), UniProt Q05397); test: FAK biochemical Alpha Screen assay; details: 80 μM ATP
[4] = target: N-terminally GST-fused purified FAK enzyme (Homo sapiens (Human), UniProt Q05397); test: FAK Biacore SPR assay; type: binding
Method: Binding parameters of compounds were determined using a Biacore™ S51 sensor. An anti-GST antibody was immobilized onto a CM5 chip by primary amine-coupling in accordance with the manufacturer's recommendations.
Concentration series' of the test compounds were injected over the spots at 25° C.
After the injection cycle of a compound the chip surface was regenerated with 10 mM glycine-HCl, pH2.2 before capturing the enzyme again.

[5] = target: VEGFR3 cytoplasmic domain (Homo sapiens, UniProt P35916); test: VEGFR3 biochemical assay (Alpha Screen); details: N-terminal GST-fusion protein (amino acids 798-1298), 500 μM ATP
[6] = tested on: MDA-231-LNA tumours; test: Combination study efficacy and tolerability with dasatinib, IMFP MDA-231-LNA tumours; type: in vivo; details: Compound 3 40 mg/kg p.o. BID, dasatinib 30 mg/kg p.o. BID; Balb/c SCID mice, MDA-231-LNA primary tumour
Method: Treatment commenced when tumours were palpable (day 9 post cell injection) and continued for the duration of the experiment. The formulations used were the same as those above, with the vehicle (I-IPMC-SV, 0.2 ml), being administered as a control.
As additional markers of potential hepatotoxicity, liver weight at harvest as well as alanine aminotransferase (ALT) and aspartate transaminase (AST) levels were determined in plasma 12 hours after the final dose of drug.

[7] = tested on: taxane-sensitive (SKOV3ip1 and HeyA8) and taxane-resistant (HeyA8-MDR) ovarian cancer cell lines; details: cited from earlier work
[8] = target: FAK (Homo sapiens (Human), UniProt Q05397); details: in vitro; cited from earlier work
[9] = tested on: HeyA8, SKOV3ip1, and HeyA8-MDR models; details: cited from earlier work

Sequence of N-terminally GST-fused purified FAK enzyme (Q05397 whole entry, the tested form may be a part): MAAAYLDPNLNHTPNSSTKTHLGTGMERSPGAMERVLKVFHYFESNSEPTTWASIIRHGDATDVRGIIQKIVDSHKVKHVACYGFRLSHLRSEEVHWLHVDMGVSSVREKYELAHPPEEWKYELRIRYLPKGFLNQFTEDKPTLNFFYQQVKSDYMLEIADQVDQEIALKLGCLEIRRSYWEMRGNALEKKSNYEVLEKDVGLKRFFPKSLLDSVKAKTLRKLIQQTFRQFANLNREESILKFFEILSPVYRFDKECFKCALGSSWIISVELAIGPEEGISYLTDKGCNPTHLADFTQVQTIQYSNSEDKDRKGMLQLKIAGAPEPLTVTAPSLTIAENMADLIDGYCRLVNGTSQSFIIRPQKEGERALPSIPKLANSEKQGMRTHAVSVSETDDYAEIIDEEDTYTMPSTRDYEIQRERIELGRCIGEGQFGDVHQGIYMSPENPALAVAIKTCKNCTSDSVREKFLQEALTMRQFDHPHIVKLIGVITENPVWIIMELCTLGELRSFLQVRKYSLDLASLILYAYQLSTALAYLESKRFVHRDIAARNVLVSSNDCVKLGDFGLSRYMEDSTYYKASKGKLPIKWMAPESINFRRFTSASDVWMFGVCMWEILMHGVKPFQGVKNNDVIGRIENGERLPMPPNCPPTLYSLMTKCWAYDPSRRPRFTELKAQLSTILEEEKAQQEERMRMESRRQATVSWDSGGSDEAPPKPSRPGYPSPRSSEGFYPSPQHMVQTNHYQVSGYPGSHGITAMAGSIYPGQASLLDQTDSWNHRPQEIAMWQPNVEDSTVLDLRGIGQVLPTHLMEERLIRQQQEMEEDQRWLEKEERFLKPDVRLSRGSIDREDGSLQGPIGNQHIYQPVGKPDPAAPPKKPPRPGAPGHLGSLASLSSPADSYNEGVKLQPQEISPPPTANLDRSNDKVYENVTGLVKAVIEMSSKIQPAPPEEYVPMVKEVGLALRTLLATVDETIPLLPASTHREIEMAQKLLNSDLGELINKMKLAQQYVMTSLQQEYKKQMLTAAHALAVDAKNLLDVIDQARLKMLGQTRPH
Sequence of VEGFR3 cytoplasmic domain (Homo sapiens, UniProt P35916) (P35916 25-1363 limits assumed): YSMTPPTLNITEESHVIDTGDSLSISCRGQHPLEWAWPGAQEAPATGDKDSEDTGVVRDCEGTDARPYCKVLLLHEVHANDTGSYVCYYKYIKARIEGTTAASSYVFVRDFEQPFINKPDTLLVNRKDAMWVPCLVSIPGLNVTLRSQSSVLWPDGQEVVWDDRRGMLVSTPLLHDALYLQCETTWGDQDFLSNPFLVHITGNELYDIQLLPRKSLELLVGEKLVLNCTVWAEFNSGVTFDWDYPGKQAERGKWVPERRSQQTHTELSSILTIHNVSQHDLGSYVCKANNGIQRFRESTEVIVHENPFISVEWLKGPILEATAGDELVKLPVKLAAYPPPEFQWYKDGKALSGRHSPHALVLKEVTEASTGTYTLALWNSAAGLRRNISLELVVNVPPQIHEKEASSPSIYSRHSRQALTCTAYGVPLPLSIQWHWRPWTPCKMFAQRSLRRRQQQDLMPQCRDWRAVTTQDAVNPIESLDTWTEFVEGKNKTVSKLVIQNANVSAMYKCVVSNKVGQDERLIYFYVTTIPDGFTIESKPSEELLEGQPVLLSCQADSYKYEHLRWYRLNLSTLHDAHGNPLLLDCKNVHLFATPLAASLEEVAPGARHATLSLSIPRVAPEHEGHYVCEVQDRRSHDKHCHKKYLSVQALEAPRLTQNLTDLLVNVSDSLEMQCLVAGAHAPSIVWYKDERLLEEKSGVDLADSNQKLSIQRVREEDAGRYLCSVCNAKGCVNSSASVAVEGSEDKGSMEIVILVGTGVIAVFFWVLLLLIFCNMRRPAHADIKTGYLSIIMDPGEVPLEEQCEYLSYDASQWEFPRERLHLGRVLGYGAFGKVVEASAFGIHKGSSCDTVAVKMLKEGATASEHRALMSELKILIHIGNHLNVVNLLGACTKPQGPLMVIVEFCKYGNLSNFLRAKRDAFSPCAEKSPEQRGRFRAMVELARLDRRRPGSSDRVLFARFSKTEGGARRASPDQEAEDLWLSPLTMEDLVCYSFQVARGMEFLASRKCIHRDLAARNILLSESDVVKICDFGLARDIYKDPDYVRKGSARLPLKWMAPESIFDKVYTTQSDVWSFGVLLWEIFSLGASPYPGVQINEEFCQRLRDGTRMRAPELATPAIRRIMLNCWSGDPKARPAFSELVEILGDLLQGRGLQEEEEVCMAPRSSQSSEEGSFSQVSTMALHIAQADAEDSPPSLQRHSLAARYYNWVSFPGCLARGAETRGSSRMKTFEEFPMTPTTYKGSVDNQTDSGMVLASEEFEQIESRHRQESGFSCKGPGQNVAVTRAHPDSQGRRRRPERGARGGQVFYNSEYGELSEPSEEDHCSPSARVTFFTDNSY
Sequence of VEGFR3 cytoplasmic domain (Homo sapiens, UniProt P35916, DEL949-1002) (P35916 with tags, fused parts or gaps DEL949-1002 limits assumed): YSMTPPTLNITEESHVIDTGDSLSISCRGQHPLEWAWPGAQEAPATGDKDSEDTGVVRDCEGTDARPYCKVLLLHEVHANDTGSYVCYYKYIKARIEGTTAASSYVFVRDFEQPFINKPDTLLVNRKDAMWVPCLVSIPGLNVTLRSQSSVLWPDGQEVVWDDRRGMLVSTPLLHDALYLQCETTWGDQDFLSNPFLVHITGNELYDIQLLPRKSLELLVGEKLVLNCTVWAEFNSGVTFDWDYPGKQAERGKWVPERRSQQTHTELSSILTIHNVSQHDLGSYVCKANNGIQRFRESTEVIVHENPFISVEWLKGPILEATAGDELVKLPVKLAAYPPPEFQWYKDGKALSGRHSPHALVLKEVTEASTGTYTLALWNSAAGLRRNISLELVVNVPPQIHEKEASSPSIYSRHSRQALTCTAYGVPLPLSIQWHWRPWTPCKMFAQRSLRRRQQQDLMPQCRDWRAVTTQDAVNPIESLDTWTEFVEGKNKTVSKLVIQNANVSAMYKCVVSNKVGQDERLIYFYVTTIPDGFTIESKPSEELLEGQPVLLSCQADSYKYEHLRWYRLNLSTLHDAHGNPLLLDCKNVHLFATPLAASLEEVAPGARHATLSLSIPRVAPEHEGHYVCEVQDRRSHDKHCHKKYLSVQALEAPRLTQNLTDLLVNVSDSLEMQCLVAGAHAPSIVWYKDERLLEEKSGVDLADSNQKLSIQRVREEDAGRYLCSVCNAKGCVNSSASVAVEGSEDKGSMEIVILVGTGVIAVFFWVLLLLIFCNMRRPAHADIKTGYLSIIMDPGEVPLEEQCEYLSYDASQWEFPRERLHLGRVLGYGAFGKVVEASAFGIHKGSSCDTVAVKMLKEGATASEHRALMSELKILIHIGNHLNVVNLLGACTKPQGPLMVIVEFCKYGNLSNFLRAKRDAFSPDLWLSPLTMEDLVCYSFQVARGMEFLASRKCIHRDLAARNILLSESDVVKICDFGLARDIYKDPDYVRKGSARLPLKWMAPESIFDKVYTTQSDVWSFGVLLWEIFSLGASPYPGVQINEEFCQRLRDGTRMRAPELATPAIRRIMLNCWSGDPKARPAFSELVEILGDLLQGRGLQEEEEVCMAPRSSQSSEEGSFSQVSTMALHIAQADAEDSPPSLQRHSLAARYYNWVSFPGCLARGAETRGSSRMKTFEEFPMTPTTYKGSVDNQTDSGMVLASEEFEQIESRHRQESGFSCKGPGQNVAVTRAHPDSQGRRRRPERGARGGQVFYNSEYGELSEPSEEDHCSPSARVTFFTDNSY
Sequence of FAK enzyme (catalytic domain, amino acids 411-686) (Q05397 411-686): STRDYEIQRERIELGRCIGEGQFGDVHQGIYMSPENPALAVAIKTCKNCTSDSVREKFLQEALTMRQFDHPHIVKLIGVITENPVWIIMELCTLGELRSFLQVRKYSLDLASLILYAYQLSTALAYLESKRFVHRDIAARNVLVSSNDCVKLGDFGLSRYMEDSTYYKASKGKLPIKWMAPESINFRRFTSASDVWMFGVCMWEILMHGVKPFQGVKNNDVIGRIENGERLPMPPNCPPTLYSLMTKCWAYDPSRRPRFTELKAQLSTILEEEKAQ
Sequence of FAK (Q05397 whole entry): as the sequence (Q05397 whole entry, the tested form may be a part) above

SMILES | IC50 [1] | IC50 [2] | IC50 [3] | Kd ([4]; Biacore S51, 25° C.) | IC50 [5] | other results
CCN1CCC(c2ccc(Nc3ncc(C(F)(F)F)c(CCc4cccc(C(N)=O)c4)n3)c(OC)c2)CC1 [Compound 7] | 4.93 µM | 13.3 µM | 0.0094 µM |  |  | 
CCN1CCC(c2ccc(Nc3ncc(C(F)(F)F)c(CCc4ccccc4CC(N)=O)n3)c(OC)c2)CC1 [Compound 4, 2-(2-(2-(2-((4-(1-Ethylpiperidin-4-yl)-2-methoxyphenyl)amino)-5-(trifluoromethyl)pyrimidin-4-yl)ethyl)phenyl) acetamide] | 1.91 µM |  | 0.0036 µM | 0.0015 µM |  | 
COc1cc(C2CCNCC2)ccc1Nc1ncc(C(F)(F)F)c(CCc2ccccc2CC(N)=O)n1 [Compound 2, 2-(2-(2-(2-((2-Methoxy-4-(piperidin-4-yl)phenyl)amino)-5-(trifluoromethyl)pyrimidin-4-yl)ethyl)phenyl)acetamide] | 2.77 µM | 3.68 µM | 0.0071 µM | 0.00074 µM |  | 
CN1CCC(c2ccc(Nc3ncc(C(F)(F)F)c(CCc4ccccc4CC(N)=O)n3)c(OC(F)(F)F)c2)CC1 [Compound 11, 2-(2-(2-(2-((4-(1-Methylpiperidin-4-yl)-2-(trifluoromethoxy)phenyl)amino)-5-(trifluoromethyl)pyrimidin-4-yl)ethyl)phenyl)acetamide] | 2.58 µM |  | 0.0022 µM | 0.0017 µM | 59.8 µM | 
COc1cc(C2CCN(C)CC2)ccc1Nc1ncc(C(F)(F)F)c(CCc2ccccc2CC(N)=O)n1 [Compound 3, 2-(2-(2-(2-((2-Methoxy-4-(1-methylpiperidin-4-yl)phenyl)amino)-5-(trifluoromethyl)pyrimidin-4-yl)ethyl)phenyl)acetamide] | 6.62 µM |  | 0.0022 µM |  | 0.538 µM | TGI based on tumour weight [6]: 42%; Kd ([4]; Biacore S51, measured using an extended washing step of 30 minutes): 0.00021 µM
CN1CCC(c2ccc(Nc3ncc(C(F)(F)F)c(CCc4ccccc4CC(N)=O)n3)c(F)c2)CC1 [Compound 13, 2-(2-(2-(2-((2-Fluoro-4-(1-methylpiperidin-4-yl)phenyl)amino)-5-(trifluoromethyl)pyrimidin-4-yl)ethyl)phenyl)acetamide] | 2.76 µM |  | 0.0056 µM |  | 0.205 µM | 
COc1cc(C2CCN(C)CC2)ccc1Nc1ncc(C(F)(F)F)c(CCc2cccc(C(N)=O)c2)n1 [Compound 6, 3-(2-(2-((2-Methoxy-4-(1-methylpiperidin-4-yl)phenyl)amino)-5-(trifluoromethyl)pyrimidin-4-yl)ethyl)benzamide] | 2.24 µM |  | 0.0021 µM | 0.0029 µM | 10.4 µM | 
COc1cc(C2CCNCC2)ccc1Nc1ncc(C(F)(F)F)c(CCc2cccc(C(N)=O)c2)n1 [Compound 5, 3-(2-(2-((2-Methoxy-4-(piperidin-4-yl)phenyl)amino)-5-(trifluoromethyl)pyrimidin-4-yl)ethyl)benzamide] | 3.06 µM | 5.75 µM | 0.0072 µM |  |  | 
CNC(=O)c1ccccc1Nc1nc(Nc2ccc(N3CCOCC3)cc2OC)ncc1Cl [TAE226] |  |  |  |  |  | cell growth ([7]; in vitro): inhibited cell growth in a time- and dose-dependent manner; enhancement of docetaxel-mediated growth inhibition ([7]; taxane-resistant cell lines): 20 fold; enhancement of docetaxel-mediated growth inhibition ([7]; taxane-sensitive cell lines): 10 fold; phosphorylation of FAK at Y397 and Y861 sites [8]: inhibited; reduction of tumour burden compared with vehicle-treated controls [9]: 46-64%
NC(=O)Cc1ccccc1CCc1nc(Nc2ccc(C3CCNCC3)cc2OC(F)(F)F)ncc1C(F)(F)F [Compound 10, 2-(2-(2-(2-((4-(Piperidin-4-yl)-2-(trifluoromethoxy)phenyl)amino)-5-(trifluoromethyl)pyrimidin-4-yl)ethyl)phenyl)acetamide] | 1.69 µM |  | 0.0027 µM | 0.00079 µM | > 66 µM | 
COc1cc(N2CCNCC2)ccc1Nc1ncc(C(F)(F)F)c(CCc2ccccc2CC(N)=O)n1 [Compound 1, 2-(2-(2-(2-((2-Methoxy-4-(piperazin-1-yl)phenyl)amino)-5-(trifluoromethyl)pyrimidin-4-yl)ethyl)phenyl)acetamide] | 1.43 µM | 0.275 µM | 0.0019 µM | 0.00029 µM |  | 
CCc1cc(C2CCN(C)CC2)ccc1Nc1ncc(C(F)(F)F)c(CCc2ccccc2CC(N)=O)n1 [Compound 9, 2-(2-(2-(2-((2-Ethyl-4-(1-methylpiperidin-4-yl)phenyl)amino)-5-(trifluoromethyl)pyrimidin-4-yl)ethyl)phenyl)acetamide] | 2.9 µM |  |  |  |  | 
CCc1cc(C2CCNCC2)ccc1Nc1ncc(C(F)(F)F)c(CCc2ccccc2CC(N)=O)n1 [Compound 8, 2-(2-(2-(2-((2-Ethyl-4-(piperidin-4-yl)phenyl)amino)-5-(trifluoromethyl)pyrimidin-4-yl)ethyl)phenyl)acetamide] | 2.48 µM |  |  |  | 1.18 µM | 
